Activity calls are given as the source filed them. The calls are words filed in the database; no cut-off is given here.
Legend:
[1] = target: T1, Tyrosinase (Danio rerio) (UniProt A0A8M1PAD4); assay: Inhibition of zebrafish embryo tyrosinase assessed as melanin production at 50 ug/ml after 48 hrs relative to control; values are per cent of control
T1 sequence (whole entry): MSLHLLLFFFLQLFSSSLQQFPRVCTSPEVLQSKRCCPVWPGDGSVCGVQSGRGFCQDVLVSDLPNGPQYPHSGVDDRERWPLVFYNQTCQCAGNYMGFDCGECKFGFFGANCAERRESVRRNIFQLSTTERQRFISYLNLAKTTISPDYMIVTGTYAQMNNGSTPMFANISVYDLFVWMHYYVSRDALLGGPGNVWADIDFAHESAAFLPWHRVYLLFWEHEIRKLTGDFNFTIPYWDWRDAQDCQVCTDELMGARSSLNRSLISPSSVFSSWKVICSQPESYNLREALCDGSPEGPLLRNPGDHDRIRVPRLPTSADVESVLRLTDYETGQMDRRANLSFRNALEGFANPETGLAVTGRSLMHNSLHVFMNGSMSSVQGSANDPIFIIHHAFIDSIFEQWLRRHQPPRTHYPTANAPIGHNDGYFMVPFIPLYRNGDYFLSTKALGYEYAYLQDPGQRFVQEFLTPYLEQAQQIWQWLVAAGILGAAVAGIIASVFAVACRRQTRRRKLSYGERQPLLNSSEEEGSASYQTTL

[2] = test system: Danio rerio; assay: Toxicity in wild type zebrafish embryos assessed as yolk edema at 2000 ug/ml treated for 96 hrs post fertilization starting from 6 hrs post fertilization by inverted microscopic analysis relative to control; type: organism-based; settings: in vivo
[3] = species: Danio rerio; assay: Toxicity in wild type zebrafish embryos assessed as otoliths at 100 ug/ml treated for 96 hrs post fertilization starting from 6 hrs post fertilization by inverted microscopic analysis relative to control; type: organism-based; settings: in vivo
[4] = species: Danio rerio; assay: Toxicity in wild type zebrafish embryos assessed as eyes at 1000 ug/ml treated for 96 hrs post fertilization starting from 6 hrs post fertilization by inverted microscopic analysis relative to control; type: organism-based; settings: in vivo
[5] = test system: Neutrophil; assay: Cytotoxicity against mpx:GFP transgenic zebrafish 24 hrs post fertilization embryo neutrophils assessed as loss in neutrophil at 2 to 2.5 mg/ml; type: cell-based, Danio rerio
[6] = species: Danio rerio; assay: Toxicity in wild type zebrafish embryos assessed as notochord at 2500 ug/ml treated for 96 hrs post fertilization starting from 6 hrs post fertilization by inverted microscopic analysis relative to control; type: organism-based; settings: in vivo
[7] = species: Danio rerio; assay: Toxicity in wild type zebrafish embryos assessed as blood circulation at 100 ug/ml treated for 96 hrs post fertilization starting from 6 hrs post fertilization by inverted microscopic analysis relative to control; type: organism-based; settings: in vivo
[8] = Toxicity in wild type zebrafish embryos assessed as dead embryo at 2500 ug/ml treated for 96 hrs post fertilization starting from 6 hrs post fertilization by inverted microscopic analysis relative to control; type: organism-based, Danio rerio; settings: in vivo, read-out: Activity
[9] = species: Danio rerio; assay: Toxicity in wild type zebrafish embryos assessed as unhatched embryo at 500 ug/ml treated for 96 hrs post fertilization starting from 6 hrs post fertilization by inverted microscopic analysis relative to control; type: organism-based; settings: in vivo
[10] = test system: Danio rerio; assay: Toxicity in wild type zebrafish embryos assessed as yolk edema at 1000 ug/ml treated for 96 hrs post fertilization starting from 6 hrs post fertilization by inverted microscopic analysis relative to control; type: organism-based; settings: in vivo
[11] = species: Danio rerio; assay: Anti-melanogenic activity in wild type zebrafish 24 hrs post fertilization embryos assessed as decrease in body pigmentation at 100 ug/ml after 48 hrs; type: functional, organism-based
[12] = species: Danio rerio; assay: Toxicity in wild type zebrafish embryos assessed as teratogenic embryo at 1000 ug/ml treated for 96 hrs post fertilization starting from 6 hrs post fertilization by inverted microscopic analysis relative to control; type: organism-based; settings: in vivo
[13] = species: Danio rerio; assay: Toxicity in wild type zebrafish embryos assessed as growth retardation at 100 ug/ml treated for 96 hrs post fertilization starting from 6 hrs post fertilization by inverted microscopic analysis relative to control; type: organism-based; settings: in vivo
[14] = species: Danio rerio; assay: Toxicity in wild type zebrafish embryos assessed as eyes at 500 ug/ml treated for 96 hrs post fertilization starting from 6 hrs post fertilization by inverted microscopic analysis relative to control; type: organism-based; settings: in vivo
[15] = test system: Danio rerio; assay: Toxicity in wild type zebrafish embryos assessed as yolk edema at 2500 ug/ml treated for 96 hrs post fertilization starting from 6 hrs post fertilization by inverted microscopic analysis relative to control; type: organism-based; settings: in vivo
[16] = test system: Danio rerio; assay: Toxicity in wild type zebrafish embryos assessed as pericardial edema at 1000 ug/ml treated for 96 hrs post fertilization starting from 6 hrs post fertilization by inverted microscopic analysis relative to control; type: organism-based; settings: in vivo
[17] = species: Danio rerio; assay: Toxicity in wild type zebrafish embryos assessed as growth retardation at 2500 ug/ml treated for 96 hrs post fertilization starting from 6 hrs post fertilization by inverted microscopic analysis relative to control; type: organism-based; settings: in vivo
[18] = species: Danio rerio; assay: Toxicity in wild type zebrafish embryos assessed as head malformation at 500 ug/ml treated for 96 hrs post fertilization starting from 6 hrs post fertilization by inverted microscopic analysis relative to control; type: organism-based; settings: in vivo
[19] = species: Danio rerio; assay: Toxicity in wild type zebrafish embryos assessed as skeletal deformities at 2500 ug/ml treated for 96 hrs post fertilization starting from 6 hrs post fertilization by inverted microscopic analysis relative to control; type: organism-based; settings: in vivo
[20] = species: Danio rerio; assay: Toxicity in wild type zebrafish embryos assessed as normal embryo at 2500 ug/ml treated for 96 hrs post fertilization starting from 6 hrs post fertilization by inverted microscopic analysis relative to control; type: organism-based; settings: in vivo
[21] = species: Danio rerio; assay: Toxicity in wild type zebrafish embryos assessed as heart beat at 2500 ug/ml treated for 96 hrs post fertilization starting from 6 hrs post fertilization by inverted microscopic analysis relative to control; type: organism-based; settings: in vivo
[22] = species: Danio rerio; assay: Toxicity in wild type zebrafish embryos assessed as teratogenic embryo at 500 ug/ml treated for 96 hrs post fertilization starting from 6 hrs post fertilization by inverted microscopic analysis relative to control; type: organism-based; settings: in vivo
[23] = test system: Danio rerio; assay: Toxicity in wild type zebrafish embryos assessed as pericardial edema at 2000 ug/ml treated for 96 hrs post fertilization starting from 6 hrs post fertilization by inverted microscopic analysis relative to control; type: organism-based; settings: in vivo
[24] = species: Danio rerio; assay: Toxicity in wild type zebrafish embryos assessed as normal embryo at 500 ug/ml treated for 96 hrs post fertilization starting from 6 hrs post fertilization by inverted microscopic analysis relative to control; type: organism-based; settings: in vivo

## O=c1cc(-c2ccccc2)c2ccc(O)cc2o1
[1]
  melanin content % of control: 24%

## O=c1cc(CO)occ1O [KOJIC ACID]
[2]
  Activity: 0%
[3]
  Activity: 0%
[4]
  Activity: 0%
[5]
  Activity: Toxic
[6]
  Activity: 0%
[7]
  Activity: 0%
[8]
  mortality at 2500 ug/ml: 0%
[9]
  Activity: 0%
[10]
  Activity: 0%
[11]
  Activity: inactive
[12]
  Activity: 98.33%
[13]
  Activity: 0%
[14]
  Activity: 0%
[15]
  Activity: 5%
[16]
  Activity: 98.33%
[17]
  Activity: 35%
[18]
  Activity: 0%
[19]
  Activity: 98.33%
[20]
  Activity: 0%
[21]
  Activity: 100%
[22]
  Activity: 86.67%
[23]
  Activity: 100%
[24]
  Activity: 13.33%
